Assay results from patent US20070197599A1, “HYDROXYLAMINES AND DERIVATIVES AS ANTI-ANGIOGENIC AGENTS” (priority 2006, published 2007).
“And” between values parts separate entries of the source, which are not always exact repeats. Equal values may be shown once.

Assays:
[1] = test system: selenite induced cataract; conditions: mice; cited from earlier work
[2] = In vitro stability of Compound 1 in dog plasma; format: in vitro ADME; conditions: formed from OT-551 (Compound 1, 1000 ng/mL)
Procedure: (§1) The active metabolite of Compound 1 (Cyclopropanecarboxylic acid 1-hydroxy-2,2,6,6-tetramethyl-piperidin-4-yl ester) is TPH. The objective of this analysis was to determine the in vitro half-life of Compound 1 in rat, rabbit, dog, and human plasma under standardized incubation conditions.
(§2) Compound 1 was incubated with pooled rat, rabbit, dog, and human plasma for various times under standardized incubation conditions. Pre-labeled tubes containing pooled plasma from rats, rabbits, dogs, and humans were pre-incubated in a shaking 37° C. water bath. A Compound 1 solution was added to the tubes at a final concentration of 1000 ng/mL. Time zero samples (n=5) were immediately removed and transferred into tubes containing a stabilizer solution (DTPA, acetylcysteine and ascorbic acid), the LC/MS/MS assay internal standard and methanol. […] The tubes were vortexed, placed on ice, followed by centrifugation. One hundred-μL aliquots of the supernatant were transferred into HPLC sample vials. Additional tubes (n=5 at each time point) were incubated for 5, 10, 20, 30, 60, 120, and 240 minutes at 37° C. and thereafter processed. The amount of Compound 1 and TPH in each incubated sample was quantified using validated LC/MS/MS assays.

[3] = In vitro stability of Compound 1 in rat plasma; format: in vitro ADME; conditions: formed from OT-551 (Compound 1, 1000 ng/mL)
Procedure: as §1, §2

[4] = Single-dose 10-minute intravenous infusion toxicokinetics in Sprague-Dawley rats; format: in vivo
Procedure: Blood for toxicokinetic evaluations was collected at pre-determined time points during and after the infusion.
All pharmacokinetic analyses were performed using Kinetica®, version 4.2 (Innaphase, Philadelphia, Pa.).
Cmax is the observed maximum plasma concentration
Tmax is the time Cmax is reached
T1/2 is the elimination half-life
The plasma concentrations were rounded to the nearest tenth of a ng/mL before the calculations. […] Nominal time points were used for all calculations.

[5] = test system: bFGF-induced angiogenesis in the CAM model; experiment: bFGF-induced angiogenesis in the CAM model (TPH); format: in vivo, chick
Procedure: Neovascularization was examined by previously described methods (see references at the end of Example 5). Ten-day-old fertilized chicken eggs were incubated at 37° C. with 55% relative humidity. In the dark with the help of candling lamp and using a hypodermic needle a small hole was punctured in the shell covering the air sac. A second hole was punctured on the wider side of the egg above an avascular area of the embryonic membrane. An artificial air sac was created below the second hole by applying gentle vacuum to the first hole using a small rubber squeeze bulb. The vacuum caused the separation of chorioallantoic membrane (CAM) from the shell. An approximately 1.0 cm^2 widow was cut in the shell over the dropped CAM with the use of a mini drill. The underlying CAM was accessed through this small window.
Filter disks were punched using a small puncher from filter paper #1 (Whatman International, United Kingdom). Filter disks were soaked in 3 mg/ml cortisone acetate solution (95% ethanol and water) and air-dried under sterile condition. For inducing angiogenesis, sterile filter disks were saturated with bFGF (1 μg/ml) or other pro-angiogenesis factors and control disks were saturated with PBS without Calcium and Magnesium.
Using sterile forceps one filter/CAM was placed from the window. The window was sealed with Highland brand transparent tape. After 24 hr, 10-25 µl of test agent (inhibitor) was injected intravenously or added topically into the CAM membrane of bFGF or other pro-angiogenesis factors stimulated CAMs. • Control filter disks received PBS without Calcium and Magnesium. • After 48 hr, CAM tissue directly beneath filter disk was harvested and placed in a 35-mm Petri dish. Eight-Ten eggs/treatment group was used.
A pro-angiogenic agent (see Examples, below) was added to induce new blood vessel branches on the CAM of 10-day old embryos. Sterile disks of #1 filter paper (Whatman International, United Kingdom) were pre-treated with 3 mg/ml cortisone acetate, and air dried under sterile conditions. The disks were then suspended in PBS (Phosphate Buffered Saline) and placed on growing CAMs. Filters treated with TPH (TEMPOL-H) or TEMPOL and/or H2O2 or TPH and/or bFGF or VEGF were placed on the first day of the 3-day incubation.
Digital Images and Microscopic analysis of CAM sections: CAM sections from Petri dish were examined using SV6 stereomicroscope (Karl Zeiss) at 50× magnification. Digital images were captured using a 3-CCD color video camera system (Toshiba America, New York, N.Y.). These images were analyzed using Image-Pro Plus software (Media Cybernetics). The number of branch points in blood vessels within the circular region superimposed to the area of a filter disk was counted for each section. After incubation at 37° C. with 55% relative humidity for 3 days, the CAM tissue directly beneath each filter disk was resected from control and treated CAM samples. Tissues were washed three times with PBS. Sections were placed in a 35-mm Petri dish (Nalge Nunc; Rochester, N.Y.) and were examined under a SV6 stereomicroscope (Karl Zeiss; Thornwood, N.Y.) at 50× magnification. Digital images of CAM sections adjacent to filters were collected using a 3-CCD color video camera system (Toshiba America; New York, N.Y.) and analyzed with the Image-Pro Plus software (Media Cybernetics; Silver Spring, Md.). The number of vessel branch points contained in a circular region equal to the area of a filter disk was counted for each section. Percent inhibition data are expressed as the quotient of the experimental value minus the negative control value divided by the difference between the positive control value and the negative control value. One image was counted in each CAM preparation, and findings from eight CAM preparations were analyzed for each treatment condition. In addition, each experiment was performed three times. […]

[6] = after Compound 1 10 mg/kg iv infusion
[7] = after Compound 1 30 mg/kg iv infusion
[8] = after Compound 1 100 mg/kg iv infusion

Q: What does the source list for `CC1(C)CC(O)CC(C)(C)N1O` [TPH]?
A: prevention of selenite induced cataract [1]: effective; Concentration of TPH in plasma ([2]; incubation 0 min): 0.00 ± 0.00 ng/mL; Concentration of TPH in plasma ([2]; incubation 5 min): 5.85 ± 0.73 ng/mL; Concentration of TPH in plasma ([2]; incubation 10 min): 8.77 ± 0.65 ng/mL; Concentration of TPH in plasma ([2]; incubation 20 min): 12.79 ± 0.74 ng/mL; Concentration of TPH in plasma ([2]; incubation 30 min): 16.22 ± 0.67 ng/mL; Concentration of TPH in plasma ([2]; incubation 60 min): 25.68 ± 1.04 ng/mL; Concentration of TPH in plasma ([2]; incubation 120 min): 39.31 ± 1.09 ng/mL; Concentration of TPH in plasma ([2]; incubation 240 min): 53.92 ± 1.68 ng/mL; Concentration of TPH in plasma ([3]; incubation 0 min): 10.23 ± 1.59 ng/mL; Concentration of TPH in plasma ([3]; incubation 5 min): 30.47 ± 1.65 ng/mL; Concentration of TPH in plasma ([3]; incubation 10 min): 50.91 ± 2.11 ng/mL; Concentration of TPH in plasma ([3]; incubation 20 min): 86.30 ± 3.30 ng/mL; Concentration of TPH in plasma ([3]; incubation 30 min): 119.63 ± 7.08 ng/mL; Concentration of TPH in plasma ([3]; incubation 60 min): 201.94 ± 4.19 ng/mL; Concentration of TPH in plasma ([3]; incubation 120 min): 304.66 ± 7.27 ng/mL; Concentration of TPH in plasma ([3]; incubation 240 min): 362.66 ± 7.50 ng/mL; plasma levels of TPH at 4 hr post infusion ([4]; after Compound 1 10 mg/kg dose): still quantifiable; AUC(0-4.167 hr) of TPH [4, 6]: 1694.8 ng·h/mL; Cmax of TPH [4, 6]: 2481.7 ng/mL; Tmax of TPH [4, 6]: 10 min; T½ of TPH (elimination half-life) [4, 6]: 24 min; Plasma concentration of TPH ([4]; after Compound 1 10 mg/kg iv infusion, 0.167 hr): 2481.7 ± 325.8 ng/mL; Plasma concentration of TPH ([4]; after Compound 1 10 mg/kg iv infusion, 1.167 hr): 204.7 ± 85.6 ng/mL; Plasma concentration of TPH ([4]; after Compound 1 10 mg/kg iv infusion, 2.167 hr): 25.2 ± 24.0 ng/mL; Plasma concentration of TPH ([4]; after Compound 1 10 mg/kg iv infusion, 4.167 hr): 4.2 ± 10.3 ng/mL; AUC of TPH ([4]; after Compound 1 10 mg/kg iv infusion, to time infinity): 1697.5 ng·h/mL; Cmax of TPH [4, 7]: 8337.7 ng/mL; Tmax of TPH [4, 7]: 10 min; Plasma concentration of TPH ([4]; after Compound 1 30 mg/kg iv infusion, 0.167 hr): 8337.7 ± 2099.5 ng/mL; Plasma concentration of TPH ([4]; after Compound 1 30 mg/kg iv infusion, 4.167 hr): 53.8 ± 29.7 ng/mL; Cmax of TPH [4, 8]: 29020.8 ng/mL; Tmax of TPH [4, 8]: 10 min; Plasma concentration of TPH ([4]; after Compound 1 100 mg/kg iv infusion, 0.167 hr): 29020.8 ± 11713.7 ng/mL; Plasma concentration of TPH ([4]; after Compound 1 100 mg/kg iv infusion, 4.167 hr): 160.0 ± 97.5 ng/mL; Tmax of TPH ([4]; after Compound 1 200 mg/kg iv infusion): 10 min; Plasma concentration of TPH ([4]; after Compound 1 200 mg/kg iv infusion, 0.167 hr): 60802.2 ± 8922.5 ng/mL; Plasma concentration of TPH ([4]; after Compound 1 200 mg/kg iv infusion, 4.167 hr): 524.5 ± 237.0 ng/mL; Cmax of TPH ([4]; after Compound 1 200 mg/kg iv infusion, 200 mg/kg): 60802.1 ng/mL and 60802.2 ng/mL; levels of TPH at four hours after terminating the infusion relative to concentrations immediately after terminating the infusions ([4]; after Compound 1 30, 100 and 200 mg/kg): less than 1%; inhibition of bFGF-induced angiogenesis ([5]; 100-400 μg): dose-dependent inhibition; Mean % Inhibition ± SD ([5]; bFGF (1 μg/ml) + TPH 100 μg): 20 ± 12%; Mean Branch points ± SEM ([5]; bFGF (1 μg/ml) + TPH 100 μg): 172 ± 12.4; Mean % Inhibition ± SD ([5]; bFGF (1 μg/ml) + TPH 200 μg): 45.3 ± 7.5 %; Mean Branch points ± SEM ([5]; bFGF (1 μg/ml) + TPH 200 μg): 147.2 ± 7.5; Mean % Inhibition ± SD ([5]; bFGF (1 μg/ml) + TPH 400 μg): 58.7 ± 10.9 %; Mean Branch points ± SEM ([5]; bFGF (1 μg/ml) + TPH 400 μg): 133.8 ± 10.8; Mean % Inhibition ± SD ([5]; bFGF (1 μg/ml) + TPH 800 μg): 28.1 ± 6.8 %; Mean Branch points ± SEM ([5]; bFGF (1 μg/ml) + TPH 800 μg): 164.2 ± 6.7
